Earlier results as cited in patent US20070111953A1, “Compositions to improve the bioavailability of polymethoxyflavones and tocotrienols for treatment of cardiovascular disease” (KGK Synergize, Inc., priority 2005, published 2007).

System: acetylated LDL metabolism

With `COc1ccc(-c2cc(=O)c3c(OC)c(OC)c(OC)c(OC)c3o2)cc1OC` [nobiletin] as the compound, how does the “Inhibition of acetylated LDL metabolism” value read?
The value was 50-72%.
